Experimental data: patent publication US10973819B2, “Small molecules inhibitors of RAD51” (The University of Chicago, priority 2016, dated 2021)

Columns and labels:
[1] = tested on: RAD51 foci; assay: RAD51 cytological focus formation after irradiation; format: cell-based, human; details: 6 hours post-irradiation
Description: Cells were grown on glass coverslips for two days prior to irradiation with X-rays at 1.5 Gy/min using a Philips RT250 Maxitron. Following 6 hours of outgrowth, the adherent cells were incubated in permeabilization buffer (20 mM HEPES-NaOH (pH 7.4), 50 mM NaCl, 3 mM MgCl2, 0.5% Triton X-100, 300 mM sucrose) for 10 minutes at room temperature and then fixed in ice-cold fixation buffer (3% paraformaldehyde, 3.4% sucrose in 1×PBS) for 10 minutes at room temperature. The coverslips were washed 3 times in PBS, incubated in blocking buffer (1% BSA in 1×PBS) for 30 minutes, incubated with rabbit anti-human RAD51 primary antibody (Pacific Immunology) at a 1:1000 dilution in blocking buffer for 18 hours at 4° C., washed 3 times in PBS, incubated with Alexa488-conjugated goat anti-rabbit IgG secondary antibody (Invitrogen) at a 1:1000 dilution in blocking buffer for 1 hour at room temperature, washed 3 times in PBS, air-dried, and mounted onto glass slides in Vectashield with DAPI H-1200 (Vector laboratories). Slides were viewed on a Zeiss Axio Imager.M1 epifluorescence microscope equipped with a CCD camera for acquiring images of at least 100 randomly-selected nuclei per test condition at a representative focal plane within the nuclear volume. Sub-nuclear RAD51 foci were quantified using ImageJ (NIH, Bethesda, Md.) using a custom macro set that automatically counts foci. […]

[2] = tested on: PC-3, Caov-3, SKOV3.ip1, Kuramochi, U2OS cell lines; assay: Clonogenic survival of tumor cell lines after veliparib, olaparib or ionizing radiation; format: cell-based; details: administered immediately after veliparib, present during clonogenic outgrowth, FIGS. 6a-f
Description: FIG. 6A PC-3 cell line treated with veliparib. FIG. 6B Caov-3 cell line treated with veliparib. FIG. 6C Caov-3 cell line treated with olaparib. FIG. 6D SKOV3.ip1 cell line treated with veliparib. FIG. 6E Kuramochi cell line treated with veliparib. FIG. 6F U2OS cell line treated with ionizing radiation (x-rays).
Because 9h inhibits HR-mediated repair of DSBs, the effect of 9h on the sensitization of cancer cells to PARP inhibition or radiation damage was investigated. […] 2.

[3] = target: T1, RAD51 (Homo sapiens, UniProt Q06609); assay: Gel-based D-loop assay; format: biochemical; details: Table 2
T1 sequence (Q06609 1-339): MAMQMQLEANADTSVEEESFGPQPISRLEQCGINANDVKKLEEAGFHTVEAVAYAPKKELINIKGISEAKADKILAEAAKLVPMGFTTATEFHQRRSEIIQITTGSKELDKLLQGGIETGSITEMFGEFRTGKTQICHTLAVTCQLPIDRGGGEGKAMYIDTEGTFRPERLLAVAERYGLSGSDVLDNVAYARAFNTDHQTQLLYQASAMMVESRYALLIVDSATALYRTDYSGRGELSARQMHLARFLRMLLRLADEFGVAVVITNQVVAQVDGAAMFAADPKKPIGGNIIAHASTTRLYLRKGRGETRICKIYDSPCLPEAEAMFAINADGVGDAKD
Description: Human RAD51 in reaction buffer was combined with compound in […] DMSO, incubated at 37° C. for 10 min, and then 1 μl of 5′-^32P-labeled 90-mer ssDNA (5′-[…]) with homology to the plasmid pRS306 ^34 was added and the reaction was incubated at 37° C. for an additional 5 minutes. 1 μl of supercoiled pRS306 was then added to the reaction and incubated at 37° C. for 20 minutes; at this point the reaction consisted of 25 mM HEPES-NaOH (pH 7.0), 1 mM ATP, 1 mM MgCl2, 1 mM DTT, 1.5 μM BSA, 4.5% DMSO, 0.5 μM RAD51, 11 mM NaCl, 1% glycerol, 20 nM ssDNA, and 5 nM pRS306. The reactions were de-proteinized with 0.8% SDS and 0.8 mg/ml proteinase K, mixed with gel loading buffer, and run on a 0.9% agarose/1×TAE gel, which was dried and exposed to a phosphor screen overnight and imaged on a Storm 860 PhosphorImager. Compound IC50 values were obtained by least-squares regression fitting of appropriate linear, log, or sigmoid dose-response models to the data, with the standard error indicated.
To improve upon the D-loop inhibitory activity, medicinal chemical studies were undertaken to optimize 8. First, different functional groups were appended to rings A and B as substituents, including alkyl groups of different sizes, electron withdrawing/donating groups, and hydrogen bond donor/acceptor groups. Next, replacement of the phenyl ring B with different heterocycles or other saturated/unsaturated rings was investigated in order to probe its role. For each of the prepared compounds, the gel-based D-loop assay and the microplate-based DNA binding assay were used to characterize the biochemical activities.

[4] = target: T1, RAD51; assay: Fluorescence polarization-based DNA binding assay (RAD51-ssDNA binding); format: biochemical
Description: The fluorescence polarization-based DNA binding assay and purification of human RAD51 used for this assay was performed as previously described with a few modifications.^23 Reactions were carried out in black 384-well polystyrene plates. In each well, RAD51 protein was combined with reaction buffer and varying concentrations of compound in DMSO in an initial volume of 40 μl and incubated at 37° C. for 40 minutes. Then, 10 μl of reaction buffer containing fluorescently-labeled ssDNA substrate (5′-Alexa488-oligo-dT45) was added and the reaction incubated at 37° C. for another 40 minutes, after which the plate was read on a Tecan Infinite 200 Pro plate reader equipped with two sets of 485±25 nm/535±35 nm with parallel or perpendicularly-oriented polarization filters. In both steps of the reaction setup, buffer components were maintained at 20 mM HEPES-NaOH (pH 7.5), 2 mM ATP, 10 mM MgCl2, 0.1 mM TCEP-HCl (tris(2-carboxyethyl)phosphine), and 0.25 μM BSA. The final reaction contained 4% DMSO, 0.2 μM RAD51, 30 mM NaCl, 2% glycerol, and 2.22 nM ssDNA substrate. Compound IC50 values were obtained by least-squares regression fitting of appropriate linear, log, or sigmoid dose-response models to the data, with the standard error indicated. […]

[5] = tested on: 293-DR-GFP cells; assay: DR-GFP assay, quantitation of HR efficiency in cells; format: cell-based, human
Description: 293-DR-GFP cells were electroporated in Opti-MEM with 37.5 μg/ml pCBASce in 0.4 cm cuvettes at 325 V, 975 μF and seeded into 6-well plates with 2.5 ml complete DMEM+0.5% DMSO with compound and allowed to outgrow for 24 hours. Following outgrowth, cells were harvested and suspended in PBS with 1 μg/ml 7-aminoactinomycin D (7-AAD) and analyzed on a BD FACSCalibur flow cytometer. Dead and apoptotic cells were gated out based on size, shape, and 7-AAD staining and the fraction of GFP-positive cells among the population of live cells was determined.
The DR-GFP assay was used to test the ability of representative compounds to inhibit HR in human cells.^27 Briefly, cells containing the chromosomal DR-GFP reporter were transfected with a plasmid that expresses I-SceI, a rare-cutting endonuclease that makes a DSB within the DR-GFP cassette. Compounds were added at the time of transfection and the cells were outgrown for 24 hours. For longer outgrowth periods such as 48 hours, cells regained some HR activity. To overcome this technical limitation, the relatively early time point of 24 hours was selected to describe the in vivo effects of these compounds.

[6] = target: T1, RAD51; details: while sparing ssDNA binding activity; cited from earlier work
[7] = tested on: RAD51 foci; details: previously reported; cited from earlier work

SMILES | timely assembly of RAD51 into sub-nuclear foci in response to DNA damage [1] | sensitization of cancer cell lines to veliparib, olaparib or irradiation (clonogenic survival) [2] | sensitization of cancer cell lines to veliparib, olaparib or irradiation (clonogenic survival) ([2]; listed as RI(dl)-2) | D-Loops Max inhibition effect [3] [%] | Emax ([4]; Table 2, cells marked ↑: compound stimulates RAD51-ssDNA binding, read-out: ssDNA binding Max effect) [%] | influence on RAD51-ssDNA binding, in words ([4]; summary of Tables 2 and 3) | IC50 ([5]; Homo sapiens, 24 hours post-transfection, FIG. 5b, read-out: IC50, inhibition of cellular HR) [nM] | inhibition of cellular HR ([5]; at concentrations that did not inhibit RAD51 foci assembly) | inhibition of RAD51's HR activity in biochemical assays [6] | formation of RAD51 foci in human cells following irradiation [7]
CCNc1ccc(-c2nc3ccccc3n3cccc23)cc1 [Compound 9h, N-ethyl-4-(pyrrolo[1,2-a]quinoxalin-4-yl)aniline] | did not inhibit | significantly sensitized | significantly sensitizes | 91 ± 2 | 2 ± 24 | almost no impact | 300 ± 125 | more than 90% |  | 
C[C@@]12CCC(=O)c3coc(c31)C(=O)c1cc3c(cc12)C(=O)C=CC3=O [Halenaquinone, halenaquinone] |  |  |  |  |  |  |  |  | strongly inhibit | inhibit
